Reference: patent US5070210A, “Novel ketenimines as intermediates for insecticides” (ICI Americas Inc., priority 1990, dated 1991)

Tests used:
Assay type in all cases: in vivo
[1] = tested on: Aster Leafhopper [Macrosteles fascifrens (Stal)]; assay: Aster leafhopper insecticidal test; settings: adults/nymphs, percent in solution; 48 hours
Procedure: The compounds in Tables 1 and 2 above were tested for insecticidal activity using the following testing procedures. LC50 values, based on the results of these tests and calculated according to dosage-mortality curves, are expressed in Table 3.
Aster Leafhopper [Macrosteles fascifrens (Stal)]
Oat seedlings (Avena sp) were grown in a commercial potting soil in cups. When the plants were approximately 10 cm tall they were thinned to three plants per cup and dipped for 2-3 seconds in 50-50 acetone-water solutions of the test compounds. When the plants had dried, a clear plastic tube was placed over them and the bottom end pressed into the cup. Ten aster leafhopper adults/nymphs were then placed in each tube and the tops of the tubes covered with white organdy cloth. Mortality counts were made after 48 hours. Test concentrations ranged from 0.05% down to that at which 50% mortality occurred. The LC50 values are expressed below in Table 3 under the heading "LH" in terms of the percent of the test compound in the solution.

[2] = tested on: Cabbage Looper [Trichoplusia ni (Hubner)]; assay: Cabbage looper insecticidal test; settings: second-instar larvae, percent in solution; 3-5 days
Procedure, shortened: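 Leaf dip, squash cotyledons, 50-50 acetone-water, top dose 0.1% and lower. 5 second-instar larvae/dish, moist filter paper, high-humidity chamber. Mortality at 3-5 d; LC50 (% in solution) from dosage-mortality curves.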

[3] = tested on: Housefly [Musca domestica]; assay: Housefly insecticidal test; settings: μg per 25 female flies; mortality after 48 hours
Procedure, shortened: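 LC50, as μg compound per 25 female flies, comes from dosage-mortality curves with doses from 100 μg downward. Residues were made by evaporating acetone plus 0.01% peanut oil in dishes, onto which 1-2-day-old females were caged; deaths were counted after 48 hours.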

[4] = tested on: Tobacco Budworm [Heliothis virescens (Fabricius)] eggs; assay: Tobacco budworm egg test; settings: 2-day old eggs, percent in solution
Procedure, shortened: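 LC50 values (percent test compound in the dip solution) were calculated from dosage-mortality curves. Egg patches, 2 days old, were dipped in acetone solutions at concentrations from 0.1% downward and held at 78° F on rearing medium until control larvae hatched and fed.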

[5] = tested on: Maize weevil [Sitophilus Zeamais (Motschulsky)]; assay: Maize weevil insecticidal test; settings: adult weevils, percent in solution; 48 hours
Procedure, shortened: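 LC50, in percent of compound in solution, was derived from dosage-mortality curves after 48 h at about 25 °C. Ten adult weevils per container fed on four corn seeds briefly immersed in acetone:water (50:50) solutions of up to 0.01% and dried.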

## CCCC(=Nc1ccc2c(c1)OCO2)OCc1cccc(Oc2ccccc2)c1 [Compound 188]
[1]
  LC50, LH: > 0.05%
[2]
  LC50, CL: 0.002%
[3]
  LC50, HF: 12 µg
[4]
  LC50, TBW, E (TBW-E): > 0.1%

## CC(C)C(=Nc1cc(F)ccc1Cl)OCc1ccc(F)c(Oc2ccc(F)cc2)c1 [Compound 303]
[1]
  LC50, LH: 0.0005%
[2]
  LC50, CL: 0.0015%
[3]
  LC50, HF: > 100 µg
[4]
  LC50, TBW, E (TBW-E): > 0.1%

## CC(C)C(=Nc1cc(Cl)c(Cl)c(Cl)c1)OCc1cccc(Oc2ccccc2)c1 [Compound 20]
[1]
  LC50, LH: 0.003%
[2]
  LC50, CL: 0.0025%
[3]
  LC50, HF: 64 µg
[4]
  LC50, TBW, E (TBW-E): < 0.1%

## Cc1ccc(N=C(OCc2cccc(Oc3ccccc3)c2)C(C)C)cc1Cl [Compound 90]
[1]
  LC50, LH: 0.001%
[2]
  LC50, CL: > 0.1%
[3]
  LC50, HF: > 100 µg
[4]
  LC50, TBW, E (TBW-E): 0.016%

## CC(C)C(=Nc1cc(Cl)cc(Cl)c1)OCc1cccc(Oc2ccccc2)c1 [Compound 16]
[1]
  LC50, LH: 0.0005%
[2]
  LC50, CL: 0.004%
[3]
  LC50, HF: 20 µg
[4]
  LC50, TBW, E (TBW-E): 0.04%

## CC(C)C(=Nc1ccc2c(c1)OC(C)(C)O2)OCc1ccc(F)c(Oc2ccccc2)c1 [Compound 242]
[1]
  LC50, LH: > 0.05%
[2]
  LC50, CL: 0.00025%
[3]
  LC50, HF: < 100 µg
[4]
  LC50, TBW, E (TBW-E): > 0.1%

## CC(C)C(=Nc1c(F)c(F)cc(F)c1F)OCc1cccc(Oc2ccccc2)c1 [Compound 57]
[1]
  LC50, LH: 0.0005%
[2]
  LC50, CL: 0.004%
[3]
  LC50, HF: > 100 µg
[4]
  LC50, TBW, E (TBW-E): 0.1%

## Fc1ccc(N=C(OCc2cccc(Oc3ccccc3)c2)C(Cl)=C(Cl)Cl)cc1 [Compound 49]
[1]
  LC50, LH: > 0.05%
[2]
  LC50, CL: 0.007%
[3]
  LC50, HF: > 100 µg
[4]
  LC50, TBW, E (TBW-E): > 0.05%

## CCc1cccc(N=C(OCc2cccc(Oc3ccccc3)c2)C(C)(C)C)c1 [Compound 162]
[1]
  LC50, LH: > 0.05%
[2]
  LC50, CL: 0.035%
[3]
  LC50, HF: > 100 µg
[4]
  LC50, TBW, E (TBW-E): > 0.1%

## CC(C)C(=Nc1ccc2c(c1)OCO2)OCc1cccc(Oc2ccc(F)cc2)n1 [Compound 465]
[1]
  LC50, LH: 0.0025%
[2]
  LC50, CL: 0.0017%
[3]
  LC50, HF: 8 µg
[4]
  LC50, TBW, E (TBW-E): 0.027%

## COc1c(Cl)cc(N=C(OCc2cccc(Oc3ccccc3)c2)C(C)C)cc1Cl [Compound 91]
[1]
  LC50, LH: 0.003%
[2]
  LC50, CL: 0.002%
[3]
  LC50, HF: 37 µg
[4]
  LC50, TBW, E (TBW-E): > 0.01%

## CC(C)C(=Nc1ccc(OC(F)(F)F)cc1)OCc1cccc(Oc2ccccc2)c1 [Compound 70]
[1]
  LC50, LH: > 0.05%
[2]
  LC50, CL: < 0.1%
[3]
  LC50, HF: < 100 µg
[4]
  LC50, TBW, E (TBW-E): 0.01%

## CC(C)CC(=Nc1cc(Cl)cc(Cl)c1)OCc1cccc(Oc2ccccc2)c1 [Compound 10]
[1]
  LC50, LH: > 0.05%
[2]
  LC50, CL: 0.01%
[3]
  LC50, HF: > 100 µg
[4]
  LC50, TBW, E (TBW-E): > 0.1%

## CC(C)C(=Nc1c(Cl)cc([N+](=O)[O-])cc1Cl)OCc1cccc(Oc2ccccc2)c1 [Compound 92]
[1]
  LC50, LH: > 0.05%
[2]
  LC50, CL: 0.015%
[3]
  LC50, HF: > 100 µg
[4]
  LC50, TBW, E (TBW-E): > 0.1%

## CC(C)C(=Nc1ccc(I)cc1)OCc1cccc(Oc2ccccc2)c1 [Compound 137]
[1]
  LC50, LH: 0.008%
[2]
  LC50, CL: 0.003%
[3]
  LC50, HF: 18 µg
[4]
  LC50, TBW, E (TBW-E): 0.04%

## CC(C)(Cl)C(=Nc1ccc(C#N)c(Cl)c1)OCc1cccc(Oc2ccccc2)c1 [Compound 108]
[1]
  LC50, LH: > 0.01%
[2]
  LC50, CL: 0.002%
[3]
  LC50, HF: 44 µg
[4]
  LC50, TBW, E (TBW-E): > 0.1%

## CC(C)C(=Nc1ccc(Cl)cc1)OC(C)c1cccc(Oc2ccccc2)c1 (stereo not shown) [Compound 457]
[1]
  LC50, LH: > 0.05%
[2]
  LC50, CL: 0.009%
[3]
  LC50, HF: > 100 µg
[4]
  LC50, TBW, E (TBW-E): > 0.05%

## Clc1ccc(N=C(OCc2cccc(Oc3ccccc3)c2)C(Cl)Cl)c2ccccc12 [Compound 98]
[1]
  LC50, LH: > 0.05%
[2]
  LC50, CL: 0.016%
[3]
  LC50, HF: > 100 µg
[4]
  LC50, TBW, E (TBW-E): 0.1%

## CCc1ccc(N=C(OCc2cccc(Oc3ccccc3)c2)C(C)C)cc1 [Compound 161]
[1]
  LC50, LH: 0.002%
[2]
  LC50, CL: 0.0014%
[3]
  LC50, HF: 15 µg
[4]
  LC50, TBW, E (TBW-E): 0.07%

## CCc1cccc(N=C(OCc2cccc(Oc3ccccc3)c2)C(C)C)c1 [Compound 154]
[1]
  LC50, LH: > 0.05%
[2]
  LC50, CL: 0.004%
[3]
  LC50, HF: 25 µg
[4]
  LC50, TBW, E (TBW-E): 0.1%

## Cc1c(Cl)cc(N=C(OCc2cccc(Oc3ccccc3)c2)C(C)C)cc1Cl [Compound 101]
[1]
  LC50, LH: 0.0008%
[2]
  LC50, CL: 0.0045%
[3]
  LC50, HF: 81 µg
[4]
  LC50, TBW, E (TBW-E): > 0.1%

## CCOC(=O)c1cc(N=C(OCc2cccc(Oc3ccccc3)c2)C(C)C)ccc1Cl [Compound 102]
[1]
  LC50, LH: > 0.05%
[2]
  LC50, CL: 0.075%
[3]
  LC50, HF: > 100 µg
[4]
  LC50, TBW, E (TBW-E): > 0.1%

## COc1ccc(Oc2cccc(COC(=Nc3ccc(C(C)(C)C)cc3)C(C)C)c2)cc1 [Compound 345]
[2]
  LC50, CL: 0.018%
[3]
  LC50, HF: > 100 µg
[5]
  LC50, MW: > 0.01%
[4]
  LC50, TBW, E (TBW-E): > 0.1%

## CC(C)C(=Nc1ccc(OC(F)(F)C(F)Cl)cc1)OCc1cccc(Oc2ccccc2)c1 (stereo not shown) [Compound 418]
[2]
  LC50, CL: > 0.1%
[3]
  LC50, HF: > 100 µg
[5]
  LC50, MW: > 0.01%
[4]
  LC50, TBW, E (TBW-E): > 0.1%

## Fc1ccc(Oc2cccc(COC(=Nc3ccc(F)c(Cl)c3)C3CC3)c2)cc1 [Compound 116]
[2]
  LC50, CL: 0.00025%
[3]
  LC50, HF: 15 µg
[5]
  LC50, MW: > 0.01%
[4]
  LC50, TBW, E (TBW-E): 0.05%

## CC(C)C(=Nc1ccc2c(c1)OC(F)(F)O2)OCc1cccc(Oc2ccccc2)n1 [Compound 556]
[2]
  LC50, CL: 0.0007%
[3]
  LC50, HF: < 100 µg
[5]
  LC50, MW: > 0.01%
[4]
  LC50, TBW, E (TBW-E): 0.04%

## CCOc1ccc(N=C(OCc2ccc(F)c(Oc3ccccc3)c2)C(C)C)cc1 [Compound 373]
[2]
  LC50, CL: > 0.1%
[3]
  LC50, HF: < 100 µg
[5]
  LC50, MW: > 0.01%
[4]
  LC50, TBW, E (TBW-E): > 0.1%

## CC(C)C(=Nc1ccc(C(F)(F)F)cc1[N+](=O)[O-])OCc1ccc(F)c(Oc2ccccc2)c1 [Compound 445]
[2]
  LC50, CL: 0.00045%
[3]
  LC50, HF: < 100 µg
[5]
  LC50, MW: > 0.01%
[4]
  LC50, TBW, E (TBW-E): > 0.1%

## CCOc1ccc(N=C(OCc2cccc(Oc3ccccc3)c2)C(C)C)cc1Cl [Compound 368]
[2]
  LC50, CL: 0.002%
[3]
  LC50, HF: < 100 µg
[5]
  LC50, MW: > 0.01%
[4]
  LC50, TBW, E (TBW-E): 0.04%

## Cc1cc(N=C(OCc2ccc(F)c(Oc3ccc(Cl)cc3)c2)C(C)C)ccc1F [Compound 399]
[2]
  LC50, CL: 0.0012%
[3]
  LC50, HF: < 100 µg
[5]
  LC50, MW: > 0.01%
[4]
  LC50, TBW, E (TBW-E): 0.025%

## CC(C)C(=Nc1ccc(F)c(F)c1)OCc1cccc(Oc2ccc(Cl)cc2)n1 [Compound 559]
[2]
  LC50, CL: 0.00027%
[3]
  LC50, HF: < 100 µg
[5]
  LC50, MW: > 0.01%
[4]
  LC50, TBW, E (TBW-E): 0.017%

## CC(C)C(=Nc1cccc(Cl)c1)OCc1ccc(F)c(Oc2ccc(Cl)cc2)c1 [Compound 390]
[2]
  LC50, CL: 0.0021%
[3]
  LC50, HF: < 100 µg
[5]
  LC50, MW: > 0.01%
[4]
  LC50, TBW, E (TBW-E): 0.045%

## CC(C)C(=Nc1ccc(OC(F)(F)C(F)Cl)cc1)OCc1ccc(F)c(Oc2ccccc2)c1 (stereo not shown) [Compound 419]
[2]
  LC50, CL: > 0.1%
[3]
  LC50, HF: > 100 µg
[5]
  LC50, MW: > 0.01%
[4]
  LC50, TBW, E (TBW-E): > 0.1%

## C=C(C)C(=Nc1ccc(F)c(Cl)c1)OCc1ccc(F)c(Oc2ccc(Cl)cc2)c1 [Compound 415]
[2]
  LC50, CL: 0.00075%
[3]
  LC50, HF: < 100 µg
[5]
  LC50, MW: > 0.01%
[4]
  LC50, TBW, E (TBW-E): 0.035%

## CC(C)C(=Nc1ccc(F)c(I)c1)OCc1ccc(F)c(Oc2ccccc2)c1 [Compound 334]
[2]
  LC50, CL: 0.0007%
[3]
  LC50, HF: 9 µg
[5]
  LC50, MW: > 0.01%
[4]
  LC50, TBW, E (TBW-E): 0.013%

## CC(C)C(=Nc1cccc(OC(F)(F)F)c1)OCc1ccc(F)c(Oc2ccc(Cl)cc2)c1 [Compound 436]
[2]
  LC50, CL: 0.00075%
[3]
  LC50, HF: < 100 µg
[5]
  LC50, MW: > 0.01%
[4]
  LC50, TBW, E (TBW-E): < 0.1%

## CC(C)C(=Nc1cccc([N+](=O)[O-])c1)OCc1cccc(Oc2ccccc2)c1 [Compound 302]
[2]
  LC50, CL: 0.003%
[3]
  LC50, HF: 15 µg
[5]
  LC50, MW: > 0.01%
[4]
  LC50, TBW, E (TBW-E): > 0.1%
